For 39 compounds, IC50 and inhibition results are on record in patent US8168651B2, “Protein kinase modulators” (Cylene Pharmaceuticals, Inc., priority 2008, dated 2012).

One may read the IC50 as the concentration that gives 50% inhibition.

For assay [1], the system named is MDAMB231. The assay is described as follows: Cell-proliferation assay using Alamar Blue dye. Format: cell-based. Particulars: Homo sapiens, MDA-MB-231. The procedure: (§1) A representative cell-proliferation assay protocol using Alamar Blue dye (stored at 4° C., use 20 ul per well) is described hereafter.
96-Well Plate Setup and Compound Treatment
(§2) • a. Split and trypsinize cells. • b. Count cells using hemocytometer. • c. Plate 4,000-5,000 cells per well in 100 μl of medium and seed into a 96-well plate according to the following plate layout. Add cell culture medium only to wells B10 to B12. Wells B1 to B9 have cells but no compound added.
(§3) • d. Add 100 μl of 2× drug dilution to each well in a concentration shown in the plate layout above. At the same time, add 100 μl of media into the control wells (wells B10 to B12). Total volume is 200 μl/well. • e. Incubate four (4) days at 37° C., 5% CO2 in a humidified incubator. • f. Add 20 μl Alamar Blue reagent to each well. • g. Incubate for four (4) hours at 37° C., 5% CO2 in a humidified incubator. • h. Record fluorescence at an excitation wavelength of 544 nm and emission wavelength of 590 nm using a microplate reader.
(§4) In the assays, cells are cultured with a test compound for approximately four days, the dye then is added to the cells and fluorescence of […] dye is detected after approximately four hours. Different types of cells can be utilized in the assays (e.g., HCT-116 human colorectal carcinoma cells, PC-3 human prostatic cancer cells and MiaPaca human pancreatic carcinoma cells). Anti-proliferative effects of representative compounds are provided hereafter
For orientation: Alamar Blue is a resazurin reagent that responds to reducing activity.

The target of assay [2] is recombinant human PIM1 (Homo sapiens (Human), UniProt P11309). The assay is described as follows: PIM-1 kinase activity in cell-free in vitro assay. Type of assay: biochemical. Particulars: for inhibition at 0.5 µM: 500 nM compound, cell-free, read-out: PIM-1: % inh 500 nM; for IC50: Table 45.
The subject of assay [3] is Jurkat. The assay is described as follows: Cell proliferation modulatory activity, Jurkat. Format: cell-based. Particulars: Homo sapiens.
The subject of assay [4] is MiaPaca human pancreatic carcinoma cells. The assay is described as follows: Cell-proliferation assay using Alamar Blue dye. Type of assay: cell-based. Particulars: MIA PaCa-2, Table 45. How it is done:
as §1, §2, §3, §4

Assay [5] relates to K-562. The assay is described as follows: Cell proliferation modulatory activity, K-562. Format: cell-based. Conditions: Homo sapiens, K562; Table 45; read-out: K-562 IC50.
The test system of assay [6] is MV-4-11. The assay is described as follows: Cell proliferation modulatory activity, MV-4-11. Type of assay: cell-based. Particulars: Homo sapiens, MV4-11; Table 45; read-out: MV-4-11 IC50.
Assay [7] addresses PIM2 (Homo sapiens (Human), UniProt Q9P1W9). The assay is described as follows: PIM2 IC50. Format: biochemical. Conditions: Table 45.
In assay [8] the test system is phosphoBAD ser 112. The assay is described as follows: phosphoBAD ser 112 IC50. Format: cell-based. Conditions: read-out: phosphoBAD ser 112 IC50; Table 45.
In assay [9] the test system is MDAMB231. The assay is described as follows: MDAMB231 IC50. Type of assay: cell-based. Conditions: Homo sapiens, MDA-MB-231; Table 45.

Chain of PIM2 (Q9P1W9 whole entry): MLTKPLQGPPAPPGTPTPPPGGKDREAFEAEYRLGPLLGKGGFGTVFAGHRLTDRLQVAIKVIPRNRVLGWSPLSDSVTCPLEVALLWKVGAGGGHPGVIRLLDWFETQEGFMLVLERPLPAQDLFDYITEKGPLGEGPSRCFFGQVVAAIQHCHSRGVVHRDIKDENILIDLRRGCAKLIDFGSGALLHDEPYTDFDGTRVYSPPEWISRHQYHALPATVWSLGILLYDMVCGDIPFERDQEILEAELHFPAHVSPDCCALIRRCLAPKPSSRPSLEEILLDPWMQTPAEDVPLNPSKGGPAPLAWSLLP
Chain of recombinant human PIM1 (P11309 whole entry): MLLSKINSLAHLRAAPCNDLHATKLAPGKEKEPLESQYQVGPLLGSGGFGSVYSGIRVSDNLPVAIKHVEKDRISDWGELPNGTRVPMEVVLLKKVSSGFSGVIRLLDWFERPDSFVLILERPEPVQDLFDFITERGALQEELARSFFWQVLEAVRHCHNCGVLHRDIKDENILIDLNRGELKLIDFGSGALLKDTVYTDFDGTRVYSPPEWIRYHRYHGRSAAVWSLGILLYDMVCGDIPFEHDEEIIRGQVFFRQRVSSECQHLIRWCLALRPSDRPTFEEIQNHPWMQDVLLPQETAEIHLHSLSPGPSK

Turning to `C#Cc1cccc(Nc2nc3cc(C(=O)O)ccc3c3cnccc23)c1` [drawing 998], in assay [1], the half-maximal inhibitory concentration (IC50) came to 11.8 µM.

For `COC(=O)c1ccc2c(c1)nc(Nc1cccc(OC)c1)c1ccncc12`, the inhibition at 0.5 µM in assay [2] was 19.4%. Also, half-maximal inhibition in assay [3] (IC50) required 3.4 µM.

In turn, `COC(=O)c1ccc2c(c1)nc(NC1CC1)c1nc(SC)ncc12` [drawing 1074] gave an IC50 in assay [1] of 34.2 µM.

`O=C(O)c1ccc2c(c1)nc(NC1CC1)c1ccncc12` [drawing 1072]: the IC50 in assay [1] is > 50 µM.

As to `O=C(O)c1ccc2c(c1)nc(NCc1cccnc1)c1nc(NC3CC3)ncc12` [drawing 1058], the IC50 in [1] is > 50 µM.

Take `O=C(O)c1ccc2c(c1)nc(N1CCOCC1)c1nc(NC3CC3)ncc12` [drawing 1060]: the IC50 in [1] is > 50 µM.

In the case of `CCOc1ncc2c(n1)c(NC1CC1)nc1cc(C(=O)O)ccc12` [drawing 1048], the 50% inhibitory concentration (IC50) in assay [1] was > 50 µM.

Turning to `Cc1cc(Nc2ncc3c(n2)c(Nc2ccc(F)c(Cl)c2)nc2cc(C(=O)O)ccc23)[nH]n1` [drawing 1068], the half-maximal inhibitory concentration (IC50) in assay [1] was > 50 µM.

As for `O=C(O)c1ccc2c(c1)nc(NCc1ccccc1)c1nc(NC3CC3)ncc12` [drawing 1059], in assay [1], the 50% inhibitory concentration (IC50) is > 50 µM.

The compound `O=C(O)c1ccc2c(c1)nc(NC1CC1)c1nc(Nc3ccccc3)ncc12` [drawing 1051] gave a half-maximal inhibitory concentration (IC50) in assay [1] of 6.88 µM.

As to `COC(=O)c1ccc2c(c1)nc(Nc1ccccc1)c1ccncc12`, in [2], the inhibition at 0.5 µM is -3.02%. In addition, half-maximal inhibition in [3] (IC50) required 0.683 µM.

With `FC(F)(F)Oc1ccccc1Nc1nc2c(-c3nnc[nH]3)cccc2c2cnccc12`, the IC50 in [4] was > 10000 nM; in [2] it was < 100 nM; in assay [5], > 10000 nM; in assay [6] it was < 500 nM; in assay [7], < 100 nM; in assay [8], < 100 nM. The IC50 in assay [9] is > 10000 nM.

With `Fc1ccc(Nc2nc3c(-c4nnc[nH]4)cccc3c3cnccc23)cc1Cl`, the IC50 in assay [4] is < 5000 nM; in [2], < 100 nM; in [5] it was < 5000 nM; in [6], < 100 nM; in [7], < 500 nM; in [8], < 1000 nM. Besides, the half-maximal inhibitory concentration (IC50) in [9] is < 5000 nM.

With `COC(=O)c1ccc2c(c1)nc(NC1CC1)c1nc(SCc3ccccc3Cl)ncc12` [drawing 1044], in assay [1], the IC50 worked out at 7.23 µM.

Regarding `Fc1cc(Cl)cc(Nc2nc3c(-c4nnc[nH]4)cccc3c3cnccc23)c1`, the IC50 is < 500 nM in [4]; < 100 nM in assay [2]; < 5000 nM in [5]; < 100 nM in assay [6]; > 1100 nM in assay [7]; < 500 nM in assay [8]. Moreover, the IC50 in assay [9] was < 1000 nM.

Turning to `O=C(O)c1ccc2c(c1)nc(Nc1cncc(C3CC3)c1)c1ccncc12` [drawing 1052], the IC50 in [1] is > 50 µM.

Compound `O=C(O)c1ccc2c(c1)nc(NC1CC1)c1nc(NC3CC3)ncc12` [drawing 1049] showed a concentration for half-maximal inhibition (IC50) in [1] of 7.22 µM.

Turning to `COc1cccc(CNc2nc3c(-c4nc[nH]n4)cccc3c3cnccc23)c1`, the half-maximal inhibitory concentration (IC50) in assay [4] is > 10000 nM; in [2] it was < 100 nM; in [5], < 500 nM; in [6], < 500 nM; in assay [7] it was < 500 nM; in [8], < 5000 nM. The half-inhibitory concentration (IC50) in [9] is > 10000 nM.

For the compound `OCCNc1nc2c(-c3nnc[nH]3)cccc2c2cnccc12`, the half-inhibitory concentration (IC50) was < 500 nM in assay [4]; < 500 nM in assay [2]; > 10000 nM in assay [5]; < 100 nM in assay [6]; < 1000 nM in assay [7]; < 500 nM in assay [8]. Further, in assay [9], the IC50 was > 10000 nM.

For the compound `Clc1cccc(Nc2nc3c(-c4nnc[nH]4)cccc3c3cnccc23)c1`, the IC50 in assay [4] was < 1000 nM; in [2], < 100 nM; in assay [5], < 1000 nM; in assay [6] it was < 500 nM; in assay [7] it was < 100 nM; in assay [8], < 1000 nM. The 50% inhibitory concentration (IC50) in assay [9] is < 5000 nM.

Consider `COc1cccc(Nc2nc3c(-c4nnc[nH]4)cccc3c3cnccc23)c1`, for which the 50% inhibitory concentration (IC50) is < 1000 nM in assay [4]; < 100 nM in [2]; < 5000 nM in [5]; < 500 nM in assay [6]; < 1000 nM in assay [7]; < 100 nM in assay [8]. The IC50 in assay [9] is < 1000 nM.

The compound `C#Cc1cccc(Nc2nc3cc(C(=O)O)ccc3c3cnc(NCC4CCCO4)nc23)c1` (centres unmarked) [drawing 1038] yielded an IC50 in assay [1] of 8.38 µM.

For the compound `CC1CCCCN1CCCNc1ncc2c(n1)c(Nc1ccc(F)c(Cl)c1)nc1cc(C(=O)O)ccc12` (centres unmarked) [drawing 1062], the IC50 in assay [1] is 9.66 µM.

As for `Clc1ccc(Nc2nc3c(-c4nc[nH]n4)cccc3c3cnccc23)cc1`, the IC50 in [4] is > 10000 nM; in [2], < 100 nM; in assay [5], < 500 nM; in [6] it was < 500 nM; in [7], < 500 nM; in assay [8] it was < 5000 nM. The half-inhibitory concentration (IC50) in assay [9] is > 10000 nM.

As to `CN(C)CCNc1nc2cc(C(=O)O)ccc2c2cnc(NC3CC3)nc12` [drawing 1075], the 50% inhibitory concentration (IC50) in assay [1] is > 50 µM.

As for `Fc1ccc(Nc2nc3c(-c4nnc[nH]4)cccc3c3cnccc23)cc1`, the IC50 in assay [4] was < 5000 nM; in assay [2], < 100 nM; in assay [5], > 10000 nM; in assay [6] it was < 500 nM; in assay [7] it was < 500 nM; in [8], < 500 nM. The IC50 in assay [9] was < 5000 nM.

For `Fc1ccc(Cl)cc1Nc1nc2c(-c3nnc[nH]3)cccc2c2cnccc12`, the IC50 in [4] was < 1000 nM; in assay [2] it was < 100 nM; in assay [5], < 5000 nM; in [6] it was < 100 nM; in assay [7], < 100 nM; in assay [8], < 1000 nM. Also, the half-inhibitory concentration (IC50) in assay [9] is < 1000 nM.

In the case of `CCOc1ccc(Nc2nc3c(-c4nnc[nH]4)cccc3c3cnccc23)cc1`, the half-inhibitory concentration (IC50) is < 1000 nM in assay [4]; < 100 nM in assay [2]; < 5000 nM in assay [5]; < 100 nM in assay [6]; < 500 nM in [7]; < 100 nM in assay [8]. Moreover, the IC50 in assay [9] is > 10000 nM.

Regarding `c1ccc(Nc2nc3c(-c4nnc[nH]4)cccc3c3cnccc23)cc1`, the IC50 in assay [4] is < 1000 nM; in assay [2], < 100 nM; in [5] it was < 5000 nM; in assay [6], < 100 nM; in assay [7], < 1000 nM; in assay [8], < 100 nM. In addition, in assay [9], the 50% inhibitory concentration (IC50) was > 10000 nM.

The compound `C#Cc1cccc(Nc2nc3cc(C(=O)O)ccc3c3cnc(NCC4CC4)nc23)c1` [drawing 1039] had a half-inhibitory concentration (IC50) in [1] of 2.63 µM.

With `NS(=O)(=O)c1cccc(Nc2nc3c(-c4nc[nH]n4)cccc3c3cnccc23)c1`, the IC50 is > 10000 nM in assay [4]; < 100 nM in assay [2]; > 10000 nM in [5]; < 500 nM in assay [6]; < 500 nM in assay [7]; < 1000 nM in assay [8]. In addition, the IC50 in assay [9] is > 10000 nM.

Take `Nc1ncc2c(n1)c(NC1CC1)nc1cc(C(=O)O)ccc12` [drawing 1077]: the half-maximal inhibitory concentration (IC50) in assay [1] was > 50 µM.

As for `O=C(O)c1ccc2c(c1)nc(NC1CC1)c1nc(SCc3ccccc3Cl)ncc12` [drawing 1047], the concentration for half-maximal inhibition (IC50) in assay [1] is > 50 µM.

Turning to `Cc1cc(F)ccc1Nc1nc2c(-c3nnc[nH]3)cccc2c2cnccc12`, the half-maximal inhibitory concentration (IC50) was < 5000 nM in assay [4]; < 100 nM in [2]; < 500 nM in assay [5]; < 100 nM in [6]; < 100 nM in assay [7]; < 100 nM in [8]. For the same compound, the IC50 in assay [9] is > 10000 nM.

Turning to `Cc1cc(Nc2nc3c(-c4nnc[nH]4)cccc3c3cnccc23)ccc1F`, the IC50 in assay [4] was < 500 nM; in assay [2], < 100 nM; in assay [5], > 10000 nM; in assay [6] it was < 100 nM; in [7], < 500 nM; in [8], < 5000 nM. Besides, the IC50 in assay [9] is > 10000 nM.

As for `C#Cc1cccc(Nc2nc3c(-c4nnc[nH]4)cccc3c3cnccc23)c1`, the half-maximal inhibitory concentration (IC50) in assay [4] is < 500 nM; in assay [2] it was < 100 nM; in assay [5], < 5000 nM; in assay [6], < 100 nM; in assay [7] it was < 100 nM; in [8], < 100 nM. Also, the 50% inhibitory concentration (IC50) in assay [9] is < 500 nM.

`CCCNc1ncc2c(n1)c(NC1CC1)nc1cc(C(=O)O)ccc12` [drawing 1078] returned an IC50 in [1] of 4.36 µM.

`O=C(O)c1ccc2c(c1)nc(NCc1ccccc1)c1ccncc12` [drawing 1000] came in with an IC50 in [1] of 38 µM.

In turn, `O=C(O)c1ccc2c(c1)nc(NC1CC1)c1nc(NCc3ccccc3)ncc12` [drawing 1050] had a concentration for half-maximal inhibition (IC50) in assay [1] of 23.5 µM.
